{
  "source": "patent US20060210650A1",
  "about": "“Supplemental dietary composition for promoting weight loss” (priority 2004, published 2006)",
  "origin": "cited, not measured here",
  "conditions": "8-week study",
  "data": [
    {"smiles": "O=C(O)CC(O)(C(=O)O)C(O)C(=O)O", "note": "(single isomer, unassigned; (-)) [HCA, (−) hydroxycitric acid]", "values": [
      {"measurement": "High-Density Lipoproteins and excretion of urinary fat metabolites", "result": "increased"},
      {"measurement": "LDL-cholesterol, triglycerides and serum leptin levels", "result": "decrease"}
    ]}
  ]
}
